Test results published in patent US5541163A, “Renin inhibiting N-(2-amino-2-oxoethyl)butanediamide derivatives” (Bio-Mega/Boehringer Ingelheim Research Inc., priority 1993, dated 1996).

Target: T1, human renin (Homo sapiens, UniProt P00797)
T1 construct: A human plasma pool is used as the source of both the substrate (angiotensinogen) and the enzyme (renin); from tissue; host or cells: human plasma pool
T1 sequence (P00797 67-406): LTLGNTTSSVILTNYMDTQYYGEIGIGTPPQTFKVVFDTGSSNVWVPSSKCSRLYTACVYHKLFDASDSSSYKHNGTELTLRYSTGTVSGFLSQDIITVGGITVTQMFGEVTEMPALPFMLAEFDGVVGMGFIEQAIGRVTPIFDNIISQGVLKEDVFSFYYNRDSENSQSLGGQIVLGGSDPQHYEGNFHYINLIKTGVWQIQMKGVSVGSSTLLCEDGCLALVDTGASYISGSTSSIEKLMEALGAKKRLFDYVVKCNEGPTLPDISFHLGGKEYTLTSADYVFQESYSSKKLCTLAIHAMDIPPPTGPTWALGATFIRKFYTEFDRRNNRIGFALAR
Test: Plasma renin assay (inhibition of human renin, angiotensin I by RIA)
Assay type: biochemical
Conditions: human plasma pool, pH 6.0, 2 h incubation at 37°
Procedure, shortened: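 Pooled human plasma supplies both renin and angiotensinogen; inhibitor in MES/1% HSA buffer (1% DMSO final) incubated 2 h at 37° at pH 6.0. Angiotensin I generated quantified by radioimmunoassay, inhibition relative to no-inhibitor control, IC50 by nonlinear regression.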

Structure (SMILES)	IC50
CC(C)C[C@H](O)[C@H](O)[C@H](CC1CCCCC1)NC(=O)[C@@H](CC(=O)N(CC(=O)N(C)C)C[C@@H](C)c1ccccc1)Cc1csc(N)n1 [Compound 61, N^4-[2-(dimethylamino)-2-oxoethyl]-N^4-[2(S)-phenylpropyl]-N^1-[1(S)-(cyclohexylmethyl)-2(R),3(S)-dihydroxy-5-methylhexyl]-2(R)-[(2-amino-4-thiazolyl)methyl]-butanediamide]	3.5 nM
COCOC1CCN(C(=O)CN(CC2CCCCC2)C(=O)C[C@@H](Cc2csc(N)n2)C(=O)N[C@@H](CC2CCCCC2)[C@@H](O)[C@@H](O)CC(C)C)CC1 [Compound 62, N^4 -{2-[4-(methoxymethoxy)piperidinyl]-2-oxoethyl}-N^4-(cyclohexylmethyl)-N^1-[1(S)-(cyclohexylmethyl)-2(R),3(S)-dihydroxy-5-methylhexyl]-2(R)-[(2-amino-4-thiazolyl)methyl]-butanediamide]	3 nM
CC(C)C[C@H](O)[C@H](O)[C@H](CC1CCCCC1)NC(=O)[C@@H](CC(=O)N(CC(=O)N(C)CCc1ccccn1)[C@@H](C)C1CCCCC1)Cc1csc(N)n1 [Compound 63, N^4-[1(S)-cyclohexylethyl]-N^4 -{2-{methyl[2-(2-pyridinyl)ethyl]-amino}-2-oxoethyl}-N^1-[1(S)-(cyclohexylmethyl)-2(R),3(S)-dihydroxy-5-methylhexyl]-2(R)-[(2-amino-4-thiazolyl)methyl]butanediamide]	1 nM
CC(C)C[C@H](O)[C@H](O)[C@H](CC1CCCCC1)NC(=O)[C@@H](CC(=O)N(CC(=O)N(C)C)Cc1ccccn1)Cc1csc(N)n1 [Compound 64, N^4-[2-(dimethylamino)-2-oxoethyl]-N^4-(2-pyridinylmethyl)-N^1-[1(S)-(cyclohexylmethyl)-2(R),3(S)-dihydroxy-5-methylhexyl]-2(R)-[(2-amino-4-thiazolyl)methyl]-butanediamide]	10 nM
CN(CCc1ccccn1)C(=O)CN(CC1CCCCC1)C(=O)C[C@@H](Cc1csc(N)n1)C(=O)N[C@@H](CC1CCCCC1)[C@@H](O)CSc1nnnn1C [Compound 65, N^4-(cyclohexylmethyl)-N^4 -{2-{methyl-[2-(2-pyridinyl)ethyl]amino}-2-oxoethyl}-N^1 -{1(S)-(cyclohexylmethyl)-2(R)-hydroxy-3-[(l-methyl-1H-tetrazol-5-yl)thio]propyl}-2(R)-[(2-amino-4-thiazolyl)methyl]-butanediamide]	45 nM
CC(C)C[C@H](O)[C@H](O)[C@H](CC1CCCCC1)NC(=O)[C@@H](CC(=O)N(CC(=O)N(C)CCc1ccccn1)CC1CCCCC1)Cc1cccnc1 [Compound 66, N^4-(cyclohexylmethyl)-N^4 -{2-{methyl-[2-(2-pyridinyl)ethyl]amino}-2-oxoethyl}-N^1-[1(S)-(cyclohexylmethyl)-2(R),3(S)-dihydroxy-5-methylhexyl]-2(R)-(3-pyridinylmethyl)-butanediamide]	10 nM
CC(C)C[C@H](O)[C@H](O)[C@H](CC1CCCCC1)NC(=O)[C@@H](CC(=O)N(CC(=O)N1CCOCC1)CC1CCCCC1)Cc1ccccn1 [Compound 67, N^4-(cyclohexylmethyl)-N^4-(2-morpholino-2-oxoethyl)-N^1-[1(S)-(cyclohexylmethyl)-2(R),3(S)-dihydroxy-5-methylhexyl]-2(R)-(2-pyridinylmethyl)butanediamide]	4 nM
CC(C)C[C@H](O)[C@H](O)[C@H](CC1CCCCC1)NC(=O)[C@@H](CC(=O)N(CC(=O)N(C)C)CC1CCCCC1)Cc1ccccn1 [Compound 68, N^4-(cyclohexylmethyl)-N^4-[2-(dimethylamino)-2-oxoethyl]-N^1-[1(S)-(cyclohexylmethyl)-2(R),3(S)-dihydroxy-5-methylhexyl]-2(R)-(2-pyridinylmethyl)butanediamide]	4 nM
CC(C)C[C@H](O)[C@H](O)[C@H](CC1CCCCC1)NC(=O)[C@@H](CC(=O)N(CC(=O)N(C)C)CC1CCCC1)Cc1cccnc1 [Compound 69, N^4-(cyclopentylmethyl)-N^4-[2-(dimethylamino)-2-oxoethyl]-N^1-[1(S)-(cyclohexylmethyl)-2(R),3(S)-dihydroxy-5-methylhexyl]-2(R)-(3-pyridinylmethyl)butanediamide]	32 nM
CC(C)C[C@H](O)[C@H](O)[C@H](CC1CCCCC1)NC(=O)[C@@H](CC(=O)N(CC(=O)N(C)C)CC1CCCCCC1)Cc1cccnc1 [Compound 70, N^4-(cycloheptylmethyl)-N^4-[2-(dimethylamino)-2-oxoethyl]-N^1-[1(S)-(cyclohexylmethyl)-2(R),3(S)-dihydroxy-5-methylhexyl]-2(R)-(3-pyridinylmethyl)butanediamide]	7 nM
CC(C)C[C@H](O)[C@H](O)[C@H](CC1CCCCC1)NC(=O)[C@@H](CC(=O)N(CC(=O)N(C)CCc1ccccn1)CC1CCCC1)Cc1csc(N)n1 [Compound 71, N^4-(cyclopentylmethyl)-N^4 -{2-{methyl[2-(2-pyridinyl)ethyl]-amino}-2-oxoethyl]-N^1-[1(S)-(cyclohexylmethyl)-2(R),3(S)-dihydroxy-5-methylhexyl]-2(R)-[(2-amino-4-thiazolyl)methyl]butanediamide]	1 nM
CC(C)C[C@H](O)[C@H](O)[C@H](CC1CCCCC1)NC(=O)[C@@H](CC(=O)N(CC(=O)N(C)CCc1ccccn1)Cc1cccs1)Cc1csc(N)n1 [Compound 72, N^4 -{2-{methyl[2-(2-pyridinyl)ethyl]-amino}-2-oxoethyl}-N^4-(2-thienylmethyl)-N^1-[1(S)-(cyclohexylmethyl)-2(R),3(S)-dihydroxy-5-methylhexyl]-2(R)-[(2-amino-4-thiazolyl)methyl]-butanediamide]	2 nM
Cc1cc(C)cc(CN(CC(=O)N(C)C)C(=O)C[C@@H](Cc2csc(N)n2)C(=O)N[C@@H](CC2CCCCC2)[C@@H](O)[C@@H](O)CC(C)C)c1 [Compound 73, N^4-[2-(dimethylamino)-2-oxoethyl]-N^4-[(3,5-dimethylphenyl)methyl]-N^1-[1(S)-(cyclohexylmethyl)-2(R),3(S)-dihydroxy-5-methylhexyl]-2(R)-[(2-amino-4-thiazolyl)methyl]butanediamide]	3 nM
CC(C)OC(=O)[C@H](O)[C@H](CC1CCCCC1)NC(=O)[C@@H](CC(=O)N(CC(=O)N(C)CCc1ccccn1)CC1CCCCC1)Cc1csc(N)n1 [Compound 74, N^4-(cyclohexylmethyl)-N^4 -{2-{methyl-[2-(2-pyridinyl)ethyl]amino}-2-oxoethyl}-N^1-[1(S)-(cyclohexylmethyl)-2(R)-hydroxy-3-(1-methylethoxy)-3-oxopropyl]-2(R)-[(2-amino-4-thiazolyl)methyl]butanediamide]	18 nM
CC(C)C[C@H](O)[C@H](O)[C@H](CC1CCCCC1)NC(=O)[C@@H](CC(=O)N(CC(=O)N(C)CCc1ccccn1)[C@@H](C)c1ccccc1)Cc1csc(N)n1 [Compound 75, N^4 -{2-{methyl[2-(2-pyridinyl)ethyl]-amino}-2-oxoethyl}-N^4-[1(S)-phenylethyl]-N^1-[1(S)-(cyclohexylmethyl)-2(R),3(S)-dihydroxy-5-methylhexyl]-2(R)-[(2-amino-4-thiazolyl)methyl]butanediamide]	1 nM
CC(C)C[C@H](O)[C@H](O)[C@H](CC1CCCCC1)NC(=O)[C@@H](CC(=O)N(CC(=O)N(C)CCc1cccnc1)CC1CCCCC1)Cc1csc(N)n1 [Compound 76, N^4-(cyclohexylmethyl)-N^4 -{2-{methyl[2-(3-pyridinyl)ethyl]-amino}-2-oxoethyl}-N^1-[1(S)-(cyclohexylmethyl)-2(R),3(S)-dihydroxy-5-methylhexyl]-2(R)-[(2-amino-4-thiazolyl)methyl]butanediamide]	0.4 nM
CC(C)CC[C@H](O)[C@H](CC1CCCCC1)NC(=O)[C@@H](CC(=O)N(CC(=O)N(C)CCc1ccccn1)CC1CCCCC1)Cc1csc(N)n1 [Compound 77, N^4-(cyclohexylmethyl)-N^4 -{2-{methyl[2-(2-pyridinyl)ethyl]-amino}-2-oxoethyl}-N^1-[1(S)-(cyclohexylmethyl)-2(S)-hydroxy-5-methylhexyl]-2(R)-[(2-amino-4-thiazolyl)methyl]butanediamide]	36 nM
CC(C)C[C@H](O)[C@H](O)[C@H](CC1CCCCC1)NC(=O)[C@@H](CC(=O)N(CC(=O)N(C)C)CC1CCCCCC1)Cc1csc(N)n1 [Compound 78, N^4-(cycloheptylmethyl)-N^4-[2-(dimethylamino)-2-oxoethyl]-N^1-[1(S)-(cyclohexylmethyl)-2(R),3(S)-dihydroxy-5-methylhexyl]-2(R)-[(2-amino-4-thiazolyl)methyl]butanediamide]	0.6 nM
CC(C)C[C@H](O)[C@H](O)[C@H](CC1CCCCC1)NC(=O)[C@@H](CC(=O)N(CC(=O)N(C)CCc1ccccn1)Cc1ccco1)Cc1csc(N)n1 [Compound 79, N^4-(2-furanylmethyl)-N^4 -{2-{methyl-[2-(2-pyridinyl)ethyl)amino}-2-oxoethyl}-N^1-[1(S)-(cyclohexylmethyl)-2(R),3(S)-dihydroxy-5-methylhexyl]-2(R)-[(2-amino-4-thiazolyl)-methyl]butanediamide]	1 nM
CC(C)C[C@H](O)[C@H](O)[C@H](CC1CCCCC1)NC(=O)[C@@H](CC(=O)N(CC(=O)N1CCOCC1)CC1CCCC1)Cc1csc(N)n1 [Compound 80, N^4-(cyclopentylmethyl)-N^4-(2-morpholino-2-oxoethyl)-N^1-[1(S)-(cyclohexylmethyl)-2(R),3(S)-dihydroxy-5-methylhexyl]-2(R)-[(2-amino-4-thiazolyl)methyl]butanediamide]	2 nM
